According to PubChem BioAssay (NCI):
Values joined by “and” are separate entries in the source; they are usually repeats but may differ in a detail not shown here. Equal values may be shown once.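 Following 48 hours of exposure in 96-well plates, responses at five concentrations were used to interpolate endpoints linearly. At the GI50, growth is halved. TGI denotes the concentration required for complete inhibition of growth.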

What was measured:
Assay in all cases: NCI tumour cell line growth inhibition, 48 h
[1] = test system: HCT-15 colon
[2] = test system: HOP-62 NSCLC
[3] = test system: IGROV1 ovarian
[4] = test system: K-562 leukemia
[5] = test system: M14 melanoma
[6] = test system: MDA-MB-435
[7] = test system: NCI/ADR-RES ovarian
[8] = test system: SF-295 CNS
[9] = test system: SK-MEL-2 melanoma
[10] = test system: SR leukemia

Structure (SMILES)	GI50 [1]	TGI [1]	GI50 [2]	TGI [2]	GI50 [3]	TGI [3]	GI50 [4]	TGI [4]	GI50 [5]	TGI [5]	GI50 [6]	TGI [6]	GI50 [7]	TGI [7]	GI50 [8]	TGI [8]	GI50 [9]	TGI [9]	GI50 [10]	TGI [10]
COC(=O)CCCCC(=O)c1c(C)[nH]c(/C=C2\N=C(c3ccc[nH]3)C=C2OC)c1C	0.359 µM	1.4 µM	0.475 µM	1.87 µM	1.22 µM	2.57 µM	0.403 µM	1.77 µM	0.289 µM	0.952 µM	0.328 µM	1.22 µM	0.504 µM	1.91 µM	1.52 µM	3.05 µM	0.456 µM	1.83 µM	0.029 µM	0.313 µM
O=C(O)c1cccc(C(=O)O)c1S(=O)Cc1ccccc1 (stereo not given)	–	> 100 µM	–	> 100 µM	–	> 100 µM	–	> 100 µM	–	> 100 µM	–	> 100 µM	–	> 100 µM	–	> 100 µM	–	> 100 µM	–	> 100 µM
Cc1cccc2c3c(sc12)C(c1ccc(Cl)cc1)C(C#N)=C(N)O3 (stereo not given)	0.374 µM	2.81 µM	0.515 µM	13.8 µM	0.426 µM	11.8 µM	0.285 µM	14.2 µM	0.326 µM	12.8 µM	0.182 µM	0.42 µM	0.302 µM	2.46 µM	0.26 µM	0.992 µM	1.41 µM	21 µM	0.452 µM	> 33.9 µM
O=C1OC(C(O)CO)C(O)=C1O (stereo not given)	1860 µM	3450 µM and 3870 µM	2420 µM and 2940 µM	4800 µM and 6210 µM	2040 µM and > 2490 µM	4140 µM and > 4350 µM	378 µM and 337 µM	1460 µM and 1210 µM	1890 µM and 2290 µM	3570 µM and 4760 µM	203 µM and 208 µM	372 µM and 374 µM	2450 µM	5930 µM and > 6010 µM	6830 µM and > 4590 µM	> 10000 µM	2190 µM	4940 µM and > 3780 µM	349 µM and 292 µM	877 µM and 924 µM
Oc1cccc2ccc(N/N=C/c3cc(CN4CCOCC4)c(O)c4ncccc34)nc12	< 0.0104 µM	1.78 µM	0.0281 µM	1.44 µM	0.066 µM	4.94 µM	0.0152 µM	6.03 µM	0.0392 µM	1.58 µM	0.0165 µM	2.86 µM	0.0233 µM	1.63 µM	0.0471 µM	5.27 µM	< 0.0181 µM	0.26 µM	0.0332 µM	4.38 µM
c1ccc2cc(-c3n(Cc4ccc5ccccc5n4)c4ccccc4[n+]3Cc3ccc4ccccc4n3)ccc2c1	1.6 µM	3.18 µM	0.363 µM	1.49 µM	0.29 µM	1.28 µM	0.16 µM	1.39 µM	0.307 µM	1.53 µM	0.369 µM	1.35 µM	6.6 µM	26.4 µM	0.301 µM	1.09 µM	0.283 µM	1.01 µM	0.362 µM	1.42 µM
NS(=O)(=O)c1ccc(-c2cc3ccncc3cc2OCc2ccccc2)cc1	13.2 µM	> 25 µM	6.83 µM	> 25 µM	> 25 µM	> 25 µM	> 19.6 µM	> 25 µM	> 25 µM	> 25 µM	> 25 µM	> 25 µM	25 µM	> 25 µM	> 18 µM	> 25 µM	14.6 µM	> 25 µM	6.58 µM	> 23.4 µM
Cc1ccc(/C(C#N)=C/c2cccc([N+](=O)[O-])c2)cc1	–	> 100 µM	–	> 100 µM	–	> 100 µM	–	> 100 µM	–	> 100 µM	–	> 100 µM	–	> 100 µM	–	67.3 µM	–	> 100 µM	–	> 100 µM
Oc1ccc(C(c2ccc(O)cc2)c2ccc(Br)cn2)cc1	0.425 µM	16.9 µM	6.12 µM	> 62 µM	0.476 µM	42.7 µM	14.4 µM	> 100 µM	14.5 µM	47.4 µM	20 µM	65.9 µM	0.229 µM	0.55 µM	0.331 µM	1.63 µM	1.69 µM	21 µM	26 µM	> 86.3 µM
COc1ccc(N(CC(=O)NCCC[Te]c2ccccc2)C(=O)CNC(=O)OC(C)(C)C)cc1	3.15 µM	11.7 µM	2.19 µM	4.73 µM	2.24 µM	5.42 µM	5.5 µM	> 100 µM	3.53 µM	10.6 µM	3.31 µM	13.5 µM	2.91 µM	7.16 µM	1.27 µM	4.11 µM	2.99 µM	6.77 µM	1.66 µM	7.75 µM
Cc1cc[n+]2c(c1)-c1cc(C)cc[n+]1CC2	–	> 100 µM	–	> 100 µM	–	> 100 µM	–	> 100 µM	–	> 100 µM	–	> 100 µM	–	> 100 µM	–	> 100 µM	–	> 100 µM	–	> 100 µM
OC(C#Cc1ccccc1)(c1ccccc1)c1ccccc1	–	> 100 µM	–	> 100 µM	–	> 100 µM	–	> 100 µM	–	> 100 µM	–	56.3 µM	–	> 100 µM	–	77.7 µM	–	55.4 µM	–	> 100 µM
CC(=O)NCc1cccc(C#Cc2cncnc2Nc2ccc(OCc3cccc(F)c3)c(Cl)c2)c1	8.31 µM	> 25 µM	> 25 µM	> 25 µM	5.51 µM	> 25 µM	10.1 µM	> 25 µM	14.1 µM	> 25 µM	8.41 µM	> 25 µM	7.76 µM	> 25 µM	8.02 µM	> 25 µM	11.8 µM	> 25 µM	> 25 µM	> 25 µM
CCCCCCNC(=O)Oc1ccc(/C(=C(\C)c2ccc(Cl)cc2)c2ccc(OCCN3CCCCC3)cc2)cc1	1.07 µM	4.71 µM	5.28 µM	11.9 µM	4.38 µM	10.5 µM	0.923 µM	3.51 µM	0.785 µM	3.65 µM	3.73 µM	7.98 µM	4.15 µM	8.77 µM	4.79 µM	9.62 µM	6.22 µM	12.8 µM	0.727 µM	2.14 µM
